The test system of series [1] is pine plants. The series is described as follows: Cultivation trials with pine plants in peat using various nitrogen sources. As to conditions: 59 days; for change in growth of the pine plants on charge increase from three to ten millimoles per litre: nitrogen 3 mM to 10 mM; for growth of the pine plants (mean dry weight), ranking of the nitrogen sources: greenhouse 20° C., nitrogen 1, 3 and 10 mM, FIG. 1. The series is classed as in vivo. The protocol: The cultivation trials presented below were carried out over a time period of 59 days in a greenhouse that was kept at a constant temperature of 20° C. Lighting was kept at 150 micromole light per square meter (m^2) and second (s). The lamps used to this end were Philips Powertone SON-T+400 Watt. 720 pine seeds were sown in pots that contained 0.5 litre unfertilized (but weakly […] five seeds per pot. The pots were plastic pots that included typically four small holes in the bottom of the pot. […] Fertilizer was administered on Monday and Tuesday of each week and the seeds, and later the seedlings or shoots, were watered each Sunday. The nutrient mixture and the water were both brought a pH of 5.0 with hydrochloric acid. Both the nutrient mixture and the water were administered manually to each pot with the aid of so-called bird pipette having a capacity of one decilitre. […] Eight different nutrient mixtures were tested and the nitrogen for each nutrient mixture was charged in three different concentrations, namely concentrations of one millimole per litre (1 mM), three millimole per litre (3 mM) and ten millimole per litre (10 mM). Six pots, and therewith thirty plants, were used for each nutrient mixture and each concentration, giving a total of 144 pots. […] Further dilution was required to obtain respective concentrations of three millimole and one millimole. The remaining seven nutrient mixtures were obtained, by preparing a stock solution that coincides totally with the before described commercial product but with the exception that the nitrogen source in the form of 61.5% nitrogen in nitrate form and 38.5% nitrogen in ammonium form was excluded. […] Each nutrient mixture based on the latter two nitrogen sources were prepared and have been given the designation +(plus) in the following. The addition is that the stock solution has been charged with twice the conventional amount of both potassium and magnesium. As those skilled in this art will realise, this has been done because a significant increase in the amount of ammonium nitrogen at the cost of the amount of nitrate nitrogen may result in a potassium and magnesium deficiency from the nutrient aspect. It will be noted that with regard to the inventive fertilizer, i.e. the basic protein amino acid arginine that contains four nitrogen atoms, the concentration has been calculated on the basis of one nitrogen atom, which means that the actual addition of the acid calculated in grams per litre is comparatively low or very low. At the end of the cultivation trials, the thirty pine plans in each trial series were taken up and their dry weight determined in grams. […] The sign I stand for the standard error defined as the standard deviation (which is a well defined term to describe the spread between tests) divided by the square root of the number of samples, in this case thirty samples.

The test system of series [2] is spruce plants. The series is described as follows: Cultivation trials with spruce plants in peat using various nitrogen sources. The series is classed as in vivo. As to conditions: 59 days. The source says: 720 spruce seeds were sown in peat at the same time as and in parallel with the above described trials. The trials carried out on spruce seeds and on spruce plants stemming from the seed were identical to the earlier described trials. […] The standard deviation is also shown in this case.

For series [3] the following is noted: for Retention % (adsorption or retention of the chemicals in the peat): 0.2 millimole chemical per gram peat, 5 millimolar solution, one hour at room temperature, mean of three tests, HPLC of liquid phase; for amount of supplied chemical found in the liquid (water) phase: same test as the retention, liquid phase above the peat.
Experimental: A given amount of peat of the same kind as that used in the cultivation trials and whose properties have been given above was dried in an oven at a temperature of 60° C. for 20 hours. […] Portions of this peat corresponding to 0.25 grams were inserted into nine test tubes. 5 ml water was delivered to each test tube, this water having been purified in filters from the company Millipore. The test tubes and their contents were then allowed to stand at room temperature for 20 hours, so that the peat would become wet through.
The aforesaid three chemicals, each in solid state, were weighed into three equal portions. Each portion was dissolved in 5 ml water that had been purified in the before described manner. The amount or weight of the substance was such as to obtain a substance concentration of 5 millimolar.
Each of the nine chemical solutions was delivered to a respective test tube that contained water-drenched peat. The amount of chemical added was 0.2 millimole per gram peat in all cases. Subsequent to supplying said liquid, each test tube was shaken by hand and thereafter allowed to stand at room temperature for one hour. The materials in the test tubes layered, such that the lowermost third contained a substantially clear liquid phase and the remainder of the tube contained liquid-drenched peat. A pipette was inserted into the test tube down to approximately midway of the liquid phase. About 1.5 millilitres of liquid was drawn off through the pipette and analysed with respect to its chemical content with the aid of HPLC-chromatography (HPLC=High Performance Liquid Chromatography).
As evident from the foregoing, three similar tests were carried out for each chemical.

Like-named read-outs stand apart in the source and are kept apart here.

The source of these data is US20090056397A1, “NITROGEN CONTAINING FERTILIZER FOR PLANT GROWTH” (SweTree Technologies AB, priority 2000, published 2009).

`Cl.N` [Ammonium (NH4^+), ammonium chloride]: the “change in growth of the pine plants on charge increase from three to ten millimoles per litre” value in series [1] is recorded as “catastrophic reduction in growth”. The “growth of the pine plants at a charge of three millimoles per litre” value in series [1] (nitrogen 3 mM) is “sufficiently good growth”. In addition, the “state of the spruce plants at the end of the trial (toxicity limit)” value in series [2] (nitrogen charge of ten millimoles per litre) is “dead at the end of the trial”. In series [3], the “Retention % (adsorption or retention of the chemicals in the peat)” value (“Retention %” below) came out at 28.0% and the “amount of supplied chemical found in the liquid (water) phase” value was “more than 70%”. The “Retention %” value in series [3] (listed as ammonium) was determined as 28%.
As for `N=C(N)NCCC[C@H](N)C(=O)O` [Arginine, arginine], in series [1], the “growth of the pine plants (mean dry weight), ranking of the nitrogen sources” value is given as “best growth”. Also, in series [1] (nitrogen 1 to 3 to 10 mM), the “growth of the pine plants with increase in the nitrogen addition” value is on record as “increased constantly with an increase in the nitrogen addition”. Moreover, in series [2] (nitrogen 1 to 3 to 10 mM), the “growth of the spruce plants with increased nitrogen charges” value is on record as “constantly increased growth”. The entries for the “Retention %” value in series [3] and in series [3] (listed as arginine) were 89.1% and around 90%, respectively. Further, the “amount of supplied chemical found in the liquid (water) phase” value in series [3] was around 11%.
On to `NCC(=O)O` [Glycine, glycine], for which, in series [1], the “growth of the pine plants (mean dry weight), ranking of the nitrogen sources” value is “these three preparations are followed by the nutrient mixture that includes glycine” and the “change in growth of the pine plants on charge increase from three to ten millimoles per litre” value was “slight decrease in growth or at least not an increased growth”. Further, the “Retention %” value in series [3] was −1.9%. Moreover, the “Retention %” value in series [3] (listed as glycine) is on record as “less than zero”.
